Target: human capsaicin receptor (VR1) (Homo sapiens, UniProt Q8NER1)
Experiment: Capsaicin receptor binding assay ([3H]RTX competition, VR1-transfected HEK293 membranes)

Chain of human capsaicin receptor (VR1) (Q8NER1 whole entry): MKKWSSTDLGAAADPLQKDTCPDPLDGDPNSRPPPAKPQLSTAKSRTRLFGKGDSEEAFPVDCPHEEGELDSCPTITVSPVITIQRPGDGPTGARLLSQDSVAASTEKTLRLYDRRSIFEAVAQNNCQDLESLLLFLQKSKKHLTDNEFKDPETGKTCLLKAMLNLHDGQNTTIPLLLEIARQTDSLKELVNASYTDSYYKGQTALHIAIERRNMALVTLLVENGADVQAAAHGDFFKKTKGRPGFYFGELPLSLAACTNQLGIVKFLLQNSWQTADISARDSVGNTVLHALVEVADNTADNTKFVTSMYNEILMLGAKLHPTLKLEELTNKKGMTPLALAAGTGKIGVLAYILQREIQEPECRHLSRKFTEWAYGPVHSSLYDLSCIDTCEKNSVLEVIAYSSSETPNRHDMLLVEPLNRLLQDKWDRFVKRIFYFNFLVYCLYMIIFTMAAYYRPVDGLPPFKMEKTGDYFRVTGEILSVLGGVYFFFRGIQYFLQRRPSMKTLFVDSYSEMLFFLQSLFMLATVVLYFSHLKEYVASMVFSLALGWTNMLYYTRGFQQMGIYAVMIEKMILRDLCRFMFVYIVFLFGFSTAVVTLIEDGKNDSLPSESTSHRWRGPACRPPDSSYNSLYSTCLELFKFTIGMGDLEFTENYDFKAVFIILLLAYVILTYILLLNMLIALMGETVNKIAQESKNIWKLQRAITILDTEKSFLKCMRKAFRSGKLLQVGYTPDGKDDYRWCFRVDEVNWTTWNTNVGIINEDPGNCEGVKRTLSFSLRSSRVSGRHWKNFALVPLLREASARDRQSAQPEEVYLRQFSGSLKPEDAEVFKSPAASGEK

| Ki [nM] | Structure (SMILES) |
| --- | --- |
| < 1000 | CC1(C)CCCN(Cc2nc(Nc3ccc(C(F)(F)F)cc3)c3ncc(-c4ncccc4C(F)(F)F)cc3n2)C1 [Compound 661, [2-(3,3-Dimethyl-piperidin-1-ylmethyl)-7-(3-trifluoromethyl-pyridin-2-yl)-pyrido[3,2-d]pyrimidin-4-yl]-(4-trifluoromethyl-phenyl)-amine] |
| < 1000 | CCCCN(C)Cc1nc(Nc2ccc(C(F)(F)F)nc2)c2ccc(-c3ncccc3C(F)(F)F)cc2n1 [Compound 370, [2-[(Butyl-methyl-amino)-methyl]-7-(3-trifluoromethyl-pyridin-2-yl)-quinazolin-4-yl]-(6-trifluoromethyl-pyridin-3-yl)-amine] |
| < 1000 | CCCN1CCC(c2nc(Nc3ccc(C(F)(F)F)cc3)c3ccc(-c4ncccc4C(F)(F)F)cc3n2)CC1 [Compound 690, [2-(1-Propyl-piperidin-4-yl)-7-(3-trifluoromethyl-pyridin-2-yl)-quinazolin-4-yl]-(4-trifluoromethyl-phenyl)-amine] |
| < 1000 | COCc1nc(Nc2ccc(C3(C(=O)N4C[C@@H](C)O[C@@H](C)C4)CCC3)cc2)c2ccc(-c3ncccc3C(F)(F)F)nc2n1 [Compound 160, (2,6-Dimethyl-morpholin-4-yl)-(1-{4-[2-methoxymethyl-7-(3-trifluoromethyl-pyridin-2-yl)-pyrido[2,3-d]pyrimidin-4-ylamino]-phenyl}-cyclobutyl)-methanone] |
| < 1000 | CN(C)Cc1nc(Nc2ccc(C(F)(F)F)nc2)c2ccc(-c3ncccc3C(F)(F)F)cc2n1 [Compound 366, [2-Dimethylaminomethyl-7-(3-trifluoromethyl-pyridin-2-yl)-quinazolin-4-yl]-(6-trifluoromethyl-pyridin-3-yl)-amine] |
| < 1000 | COCCOCc1nc(Nc2ccc(C(C)(C)C#N)cc2)c2ccc(-c3ncccc3Cl)nc2n1 [Compound 83, 2-{4-[7-(3-Chloro-pyridin-2-yl)-2-(2-methoxy-ethoxymethyl)-pyrido[2,3-d]pyrimidin-4-ylamino]-phenyl}-2-methyl-propionitrile] |
| < 1000 | FC(F)(F)c1ccc(Nc2nc(CNC3CCSCC3)nc3cc(-c4ncccc4C(F)(F)F)ccc23)cn1 [Compound 554, [2-[(Tetrahydro-thiopyran-4-ylamino)-methyl]-7-(3-trifluoromethyl-pyridin-2-yl)-quinazolin-4-yl]-(6-trifluoromethyl-pyridin-3-yl)-amine] |
| < 1000 | CCc1ccc(Nc2nc(CN3CC(C)O[C@H](C)C3)nc3cc(-c4ncccc4C(F)(F)F)ccc23)cc1 (stereo in doubt) [Compound 653, (R,R)-[2-(2,6-Dimethyl-morpholin-4-ylmethyl)-7-(3-trifluoromethyl-pyridin-2-yl)-quinazolin-4-yl]-(4-ethyl-phenyl)-amine] |
| < 1000 | CC(C)c1ccc(Nc2nc(CN3C[C@@H](C)O[C@@H](C)C3)nc3cc(-c4ncccc4C(F)(F)F)ccc23)cc1 [Compound 688, [2-(2,6-Dimethyl-morpholin-4-ylmethyl)-7-(3-trifluoromethyl-pyridin-2-yl)-quinazolin-4-yl]-(4-isopropyl-phenyl)-amine (cis)] |
| < 1000 | CCN(CC)CC[C@@H](C)OCc1nc(Nc2ccc(C(C)(C)C)cc2)c2ccc(-c3ncccc3C(F)(F)F)cc2n1 [Compound 145, (4-tert-Butyl-phenyl)-[2-(3-diethylamino-1-methyl-propoxymethyl)-7-(3-trifluoromethyl-pyridin-2-yl)-quinazolin-4-yl]-amine] |
| < 1000 | CCN(Cc1cc(Nc2ccc(C(F)(F)F)cc2)c2ccc(-c3ncccc3C(F)(F)F)nc2n1)C1CCCCC1 [Compound 813, [2-[(Cyclohexyl-ethyl-amino)-methyl]-7-(3-trifluoromethyl-pyridin-2-yl)-[1,8]naphthyridin-4-yl]-(4-trifluoromethyl-phenyl)-amine] |
| < 1000 | FC(F)(F)c1ccc(Nc2nc(C3CCN(Cc4ccncc4)CC3)nc3cc(-c4ncccc4C(F)(F)F)ccc23)cc1 [Compound 691, [2-(1-Pyridin-4-ylmethyl-piperidin-4-yl)-7-(3-trifluoromethyl-pyridin-2-yl)-quinazolin-4-yl]-(4-trifluoromethyl-phenyl)-amine] |
| < 1000 | COCCc1nc(Nc2ccc(C(C)(C)C)nc2)c2ccc(-c3ncccc3C(F)(F)F)cc2n1 [Compound 49, (6-tert-Butyl-pyridin-3-yl)-[2-(2-methoxy-ethyl)-7-(3-trifluoromethyl-pyridin-2-yl)-quinazolin-4-yl]-amine] |
| < 1000 | CC1CN(Cc2nc(Nc3ccc(C(F)(F)F)cc3)c3ccc(-c4ncccc4Cl)cc3n2)CC(C)N1 (stereo not shown) [Compound 634, [7-(3-Chloro-pyridin-2-yl)-2-(3,5-dimethyl-piperazin-1-ylmethyl)-quinazolin-4-yl]-(4-trifluoromethyl-phenyl)-amine] |
| < 1000 | O=CN1CCN(CCc2nc(Nc3ccc(C(F)(F)F)cc3)c3ccc(-c4ncccc4C(F)(F)F)cc3n2)CC1 [Compound 562, 4-{2-[4-(4-Trifluoromethyl-phenylamino)-7-(3-trifluoromethyl-pyridin-2-yl)-quinazolin-2-yl]-ethyl}-piperazine-1-carbaldehyde] |
| < 1000 | COCc1cc(Nc2ccc(C(F)(F)F)cn2)c2ccc(-c3ncccc3C(F)(F)F)nc2n1 [Compound 307, [2-Methoxymethyl-7-(3-trifluoromethyl-pyridin-2-yl)-[1,8]naphthyridin-4-yl]-(5-trifluoromethyl-pyridin-2-yl)-amine] |
| < 1000 | COCc1nc(Nc2ccc(S(=O)(=O)NC(C)(C)C)cc2)c2ccc(-c3ncccc3C(F)(F)F)cc2n1 [Compound 37, N-tert-Butyl-4-[2-methoxymethyl-7-(3-trifluoromethyl-pyridin-2-yl)-quinazolin-4-ylamino]-benzenesulfonamide] |
| < 1000 | CN(C)Cc1nc(Nc2ccc(S(=O)(=O)N3CCOCC3)cc2)c2ccc(-c3ncccc3C(F)(F)F)cc2n1 [Compound 721, [2-Dimethylaminomethyl-7-(3-trifluoromethyl-pyridin-2-yl)-quinazolin-4-yl]-[4-(morpholine-4-sulfonyl)-phenyl]-amine] |
| < 1000 | COCCN(CCOC)Cc1nc(Nc2ccc(C(F)(F)F)cn2)c2ccc(-c3ncccc3C(F)(F)F)cc2n1 [Compound 521, [2-{[Bis-(2-methoxy-ethyl)-aminol]-methyl}-7-(3-trifluoromethyl-pyridin-2-yl)-quinazolin-4-yl]-(5-trifluoromethyl-pyridin-2-yl)-amine] |
| < 1000 | O=C(CCc1nc(Nc2ccc(C(F)(F)F)cc2)c2ccc(-c3ncccc3C(F)(F)F)cc2n1)N1CCCC1 [Compound 478, 1-Pyrrolidin-1-yl-3-[4-(4-trifluoromethyl-phenylamino)-7-(3-trifluoromethyl-pyridin-2-yl)-quinazolin-2-yl]-propan-1-one] |
| < 1000 | COCc1nc(Nc2ccc(C(C)(C)C#N)cc2)c2ccc(-c3nccnc3Cl)nc2n1 [Compound 238, 2-{4-[7-(3-Chloro-pyrazin-2-yl)-2-methoxymethyl-pyrido[2,3-d]pyrimidin-4-ylamino]-phenyl}-2-methyl-propionitrile] |
| < 1000 | CN1CCC(COCc2nc(Nc3ccc(C(F)(F)F)cc3)c3ccc(-c4ncccc4C(F)(F)F)cc3n2)CC1 [Compound 247, [2-(1-Methyl-piperidin-4-ylmethoxymethyl)-7-(3-trifluoromethyl-pyridin-2-yl)-quinazolin-4-yl]-(4-trifluoromethyl-phenyl)-amine] |
| < 1000 | O=S(=O)(c1ccc(Nc2nc(CO)nc3cc(-c4ncccc4C(F)(F)F)ccc23)cc1)N1CCCCC1 [Compound 186, [4-[4-(Piperidine-1-sulfonyl)-phenylamino]-7-(3-trifluoromethyl-pyridin-2-yl)-quinazolin-2-yl]-methanol] |
| < 1000 | CN(CCc1ccccc1)CCc1nc(Nc2ccc(C(F)(F)F)cc2)c2ccc(-c3ncccc3C(F)(F)F)cc2n1 [Compound 398, [2-[2-(Methyl-phenethyl-amino)-ethyl]-7-(3-trifluoromethyl-pyridin-2-yl)-quinazolin-4-yl]-(4-trifluoromethyl-phenyl)-amine] |
| < 1000 | CC(c1ccccc1)N(C)CCc1nc(Nc2ccc(C(F)(F)F)cc2)c2ccc(-c3ncccc3C(F)(F)F)cc2n1 (stereo not shown) [Compound 388, [2-{2-[Methyl-(1-phenyl-ethyl)-amino]-ethyl}-7-(3-trifluoromethyl-pyridin-2-yl)-quinazolin-4-yl]-(4-trifluoromethyl-phenyl)-amine] |
| < 1000 | O=C(O)CCCNC(=O)c1nc(Nc2ccc(C(F)(F)F)cc2)c2ccc(-c3ncccc3C(F)(F)F)nc2n1 [Compound 766, 4-{[4-(4-Trifluoromethyl-phenylamino)-7-(3-trifluoromethyl-pyridin-2-yl)-pyrido[2,3-d]pyrimidine-2-carbonyl]-amino}-butyric acid] |
| < 1000 | CN(C)CCCNC(=O)c1nc(Nc2ccc(C(F)(F)F)cc2)c2ccc(-c3ncccc3C(F)(F)F)nc2n1 [Compound 436, 4-(4-Trifluoromethyl-phenylamino)-7-(3-trifluoromethyl-pyridin-2-yl)-pyrido[2,3-d]pyrimidine-2-carboxylic acid (3-dimethylamino-propyl)-amide] |

| Structure (SMILES) | Ki [nM] |
| --- | --- |
| CC(C)COCc1nc(Nc2ccc(N3CCOCC3)cc2)c2ccc(-c3ncccc3Cl)nc2n1 [Compound 263, [7-(3-Chloro-pyridin-2-yl)-2-isobutoxymethyl-pyrido[2,3-d]pyrimidin-4-yl]-(4-morpholin-4-yl-phenyl)-amine] | < 1000 |
| CC(C)COCc1nc(Nc2ccc(Cl)c(F)c2)c2ccc(-c3ncccc3C(F)(F)F)nc2n1 [Compound 273, (4-Chloro-3-fluoro-phenyl)-[2-isobutoxymethyl-7-(3-trifluoromethyl-pyridin-2-yl)-pyrido[2,3-d]pyrimidin-4-yl]-amine] | < 1000 |
| CC(C)COCc1nc(Nc2ccc(C(C)C)cc2)c2ccc(-c3ncccc3C(F)(F)F)nc2n1 [Compound 163, [2-Isobutoxymethyl-7-(3-trifluoromethyl-pyridin-2-yl)-pyrido[2,3-d]pyrimidin-4-yl]-(4-isopropyl-phenyl)-amine] | < 1000 |
| Cc1cccnc1-c1ccc2c(Nc3ccc(C(C)C)cc3)nc(COCC(C)C)nc2n1 [Compound 130, [2-Isobutoxymethyl-7-(3-methyl-pyridin-2-yl)-pyrido[2,3-d]pyrimidin-4-yl]-(4-isopropyl-phenyl)-amine] | < 1000 |
